The text below walks through data of a melting point compilation (Tetko et al.; mined from patent text by program, amines drawn as free bases though some values may be those of a salt).

Structures are written as SMILES.

What is called melting point is the temperature of the solid-liquid transition. The compound `CCc1noc(C)c1-c1[nH]c2ccccc2c1CN(C)C` returned a melting point of 88 to 90 °C.

Compound `C=C(C)C(=O)Oc1ccc2c(c1)CCc1cc(OC(=O)C(=C)C)ccc1-2` had a melting point of 116 °C.

Regarding `CCN(CC)CCNc1ccc(CNc2ccccc2)c2sc3ccccc3c(=O)c12`, the melting point lay in the range of 133 to 135 °C.

The compound `COC(=O)c1cc2ccccc2c(-c2ccnc(Cl)c2)c1C(=O)OC` came in with a melting point of 174 to 178 °C.

Take `CCOC(=O)c1cc(-n2c(-c3ccccc3)cc3c2CCc2ccccc2-3)ccc1O`: the melting point was in the range of 134 to 135 °C.

On to `N=C(NO)c1ccc(-c2ccc(-c3nc4cc(C(=N)NO)ccc4[nH]3)cc2)c(OCc2ccccc2)c1`, for which the melting point fell in the range of 250 to 253 °C.

As to `COc1ccc2c(=O)n3c(cc2c1)S(=O)(=O)CCC3`, the melting point is 256 to 257 °C.

For `CCCCC[C@H]1CC[C@H](c2ccc(Br)nn2)CC1`, the melting point lay in the range of 101 to 103 °C.

As to `Cc1cc2nc(N3CCC(=S)CC3)nc(N)c2cc1C`, the melting point was in the range of 187 to 188 °C.

For the compound `O=C(CCCCc1ccccc1)Nc1ccc2c(c1O)C(=O)CC2`, the melting point lay in the range of 119 to 121 °C.

In turn, `COc1ccc(N)cc1NCC(N)=O` gave a melting point of 144 °C.

The compound `NS(=O)(=O)c1ccc(-n2nc(C(F)(F)F)cc2-c2ccc(-c3ncco3)cc2)cc1` gave a melting point of 215 to 217 °C.

`C1=C(c2ccc3c(c2)OCCO3)CCN(CCc2cccc3ccccc23)C1` gave a melting point of 170 to 180 °C.

Regarding `O=C(Nc1ccc(Oc2cccc3c2CCC3=O)nc1)c1ccc(Cl)c(Cl)c1`, the melting point was 202 to 204 °C.

`OC(CCCl)COc1cccc(C(F)(F)F)c1` (stereo not drawn) came in with a melting point of 50 to 52 °C.

`C=CCc1c(C(=O)OCC)nc2ccccc2c1O` showed a melting point of 146 to 147 °C.

With `CC(C)n1cc(-c2nc(C#N)c(N)nc2-c2ccccc2)ccc1=O`, the melting point turned out to be 204 °C.

For `O=C(O)CN1C(=O)C(=Cc2cc(OCc3ccccc3)c(OCc3ccccc3)c(OCc3ccccc3)c2)SC1=S`, the melting point lay within 213 to 216 °C.

`CC(C)(C)NCC(O)COc1cccc2nsnc12` (stereo not drawn) had a melting point of 89 to 91 °C.

As to `C[Si](C)(C)OCCNc1ccc(NCCO[Si](C)(C)C)c2c1C(=O)c1ccccc1C2=O`, the melting point is 123 to 126 °C.

`O=C(Nc1ccc(-c2cnc(-c3ccc(NC(=O)C4CCCCCC4)cc3)[nH]2)cc1)c1cccnc1`: the melting point fell in the range of 256 to 258 °C.

As to `Cn1nc(-c2c(Cl)cncc2Cl)nc1Cc1ccncc1`, the melting point lay within 130 to 132 °C.

Take `CSc1ccc(/C=C2\N=C(C)OC2=O)cc1`: the melting point was 154 to 155 °C.

The compound `CCCCC(CC)COC(=O)C(C#N)=Cc1ccc(NC(C)=O)cc1` (stereo not drawn) had a melting point of 119 °C.

With `FC(F)(F)CNC(=S)Nc1cccc(COC(=S)NCC(F)(F)F)n1`, the melting point lay within 173 to 175 °C.

Regarding `O=CN1CCCN(C2=Nc3cc(Cl)ccc3Nc3ccccc32)CC1`, the melting point was in the range of 152 to 155 °C.

Turning to `COc1ccc(OC)c(C(=O)Nc2ccc(N3CCOCC3)cc2C(C)=O)c1`, the melting point was in the range of 172 to 174 °C.

Regarding `CC(C)(C)OC(=O)N1Cc2c(Cl)sc(Cl)c2C1`, the melting point was 112 to 114 °C.

With `C=CCOC(=O)C1CC(=O)N(C2CC(C)(C)N(C)C(C)(C)C2)C1` (stereo not drawn), the melting point was 48 to 49 °C.

On to `O=C(O)Cc1c(-c2ccccc2)nn(-c2ccccc2Cl)c1-c1ccccc1`, for which the melting point was 191 to 193 °C.

On to `COC(=O)c1cc(SC)cnc1C1=NC(C)(C(C)C)C(=O)N1` (stereo not drawn), for which the melting point was in the range of 107 to 108 °C.

`CN1C(=O)c2cc(Nc3ccccc3)c(Nc3ccccc3)cc2C1=O`: the melting point is 195 to 196 °C.

The compound `O=C(O)c1ccc(C=Cc2cc(=O)c3cc(Br)ccc3o2)cc1` returned a melting point of 359 to 362 °C.

With `CC(Oc1ccc2nc(-c3ccccc3OC(N)=O)sc2c1)c1ccccc1C(F)(F)F` (stereo not drawn), the melting point lay in the range of 200 to 205 °C.

Turning to `CC(C)C1COCc2nc3c(N)nc4cc(O)ccc4c3n21` (stereo not drawn), the melting point was in the range of 210 to 215 °C.

`CSc1ccc(CC2=C(O)CSC2=O)cc1` yielded a melting point of 206 to 208 °C.

For `COC(C)(C)C(=O)C(Oc1ccc(Cl)cc1Cl)n1cncn1` (stereo not drawn), the melting point was in the range of 53 to 54 °C.

The compound `CCOc1nn(C(=O)NS(=O)(=O)c2c(C)csc2C(=O)OC)c(=O)n1C` had a melting point of 169 °C.

`COc1cc(C2CCN(C[C@@H](C)O)CC2)ccc1Nc1ncc2ccc(-c3ccccc3N(C)S(C)(=O)=O)n2n1` displayed a melting point of 91 to 103 °C.

On to `CC(CC(=O)O)C(=O)c1ccc(-n2ccc(=O)cc2)cc1` (stereo not drawn), for which the melting point was 250 to 252 °C.

Turning to `Cc1nc(-c2ccc(F)cc2)sc1C(=O)NCc1ccc(OC(C)(C)C(=O)O)cc1`, the melting point was 159 °C.

For `CCOC(=O)C(C(=O)OCC)c1cc(=O)n(-c2ccccc2)c2ccccc12`, the melting point was 101 to 103 °C.

The compound `C[C@@H]1CNCc2cc3ccc(C(F)(F)F)cc3n21` showed a melting point of 123 to 125 °C.

Consider `COc1cc2c(cc1OC)CN(CCCCNC(=O)c1cc(I)ccc1OCCF)CC2`, for which the melting point is 121 to 123 °C.

Compound `BrCCCOc1ccc(-c2ccccc2)cc1` returned a melting point of 60 to 63 °C.

Compound `CN1Cc2c(C(=O)OCC3CC3)ncn2-c2cccc(Cl)c2C1=O` had a melting point of 194 to 195 °C.

Compound `O=C1c2ccccc2CN1c1ccccc1CCN1CCN(c2nsc3ccccc23)CC1` showed a melting point of 208 °C.

In turn, `O=C(c1cc(=O)c2ccc(OCc3ccccc3)cc2[nH]1)N1CCC(Cc2ccccc2)CC1` registered a melting point of 228 °C.

As to `CCCC1(CCC)CC1(CN)C(=O)O` (stereo not drawn), the melting point lay within 255 to 257 °C.

Compound `CC(C)(C)OC(=O)N1CCC(CC(=O)Nc2cccc(-c3ccnc4c(C(=O)c5cccs5)cnn34)c2)CC1` had a melting point of 173 to 175 °C.

In the case of `CC(C)(C)C(=O)C(Cc1cccnc1)Oc1ccc(Cl)cc1` (stereo not drawn), the melting point was in the range of 77 to 79 °C.

In the case of `N=C(CF)Nc1cccc(C(N)=O)c1`, the melting point was in the range of 219 to 220 °C.

`COc1cc(C=O)c(OC)cc1Cl` registered a melting point of 109 °C.

Consider `NS(=O)(=O)Oc1ccc2ccccc2c1`, for which the melting point fell in the range of 114 to 115 °C.

On to `CC1(C)Oc2ccsc2C(N2CCCCC2=O)C1O` (stereo not drawn), for which the melting point lay in the range of 151 to 152 °C.

Compound `CCn1ncc2c(NCC3CCC(CO)CC3)c3ccccc3nc21` (stereo not drawn) returned a melting point of 188 to 190 °C.

Take `Oc1c(C2NCCc3ccccc32)ccc2ccccc12` (stereo not drawn): the melting point lay in the range of 117 to 120 °C.

As to `COc1cccc(CC(=O)O)c1OCCCc1cn(-c2ncc(C(F)(F)F)cc2Cl)nc1C(C)C`, the melting point lay in the range of 96 to 97 °C.

Compound `CCOc1ccccc1N1C(=O)CC(N(O)c2ccccc2)C1=O` (stereo not drawn) registered a melting point of 174 to 175 °C.

For the compound `Cc1ccc(CC(CNC(=O)C(C)c2ccc(NS(C)(=O)=O)c(F)c2)COC(=O)C(C)(C)C)cc1C` (stereo not drawn), the melting point fell in the range of 46 to 48 °C.

With `COc1ccc(C(=O)Nc2ccc(C(C)=O)cc2)cc1C12CC3CC(CC(C3)C1)C2`, the melting point was 200 to 201 °C.

As to `CC(C)(C)OC(=O)Nc1cc(C(F)(F)F)ccc1-c1cc(Oc2ccc3cccnc3c2)ncn1`, the melting point fell in the range of 159 to 162 °C.

In turn, `Cn1cc(-c2ccc(Cl)c(Cl)c2)c(=O)c(-c2ccccc2Cl)c1` showed a melting point of 169 to 171 °C.

Take `CCCCCCCC/C=C\CCCCCCCC(=O)OCC1(CO)CCC(=O)O1` (stereo not drawn): the melting point is 38.5 to 39.5 °C.

As for `CC(=O)Nc1nc(N)nc(NC2CC2)n1`, the melting point is 190 to 195 °C.

Turning to `CC(=O)NCCOC1=C2C=C(S(N)(=O)=O)SC2S(=O)(=O)CC1` (stereo not drawn), the melting point was in the range of 177 to 181 °C.

On to `O=S(=O)(c1ccc(Cl)cc1)n1ccc2cc(F)ccc21`, for which the melting point is 108 to 109 °C.

`COc1cccc(-c2nc(NO)nc(Nc3cccc([N+](=O)[O-])c3)n2)c1` came in with a melting point of 197 to 198 °C.

On to `COc1cccc(OC)c1-c1ccc(C[C@H](NC(=O)c2c(Cl)cc(-c3nccs3)cc2Cl)C(=O)O)cc1`, for which the melting point was 142 °C.

Compound `CC1CCc2c(-c3ccc([N+](=O)[O-])cc3)ccc3c(=O)c(C(=O)O)cn1c23` (stereo not drawn) had a melting point of over 300 °C.

In turn, `O=C(O)C1=C(C(F)(F)F)COc2ccc3ccccc3c21` displayed a melting point of 246 to 249 °C.

Regarding `COC(=O)CCNc1cccc(CNC(=O)C2Cc3ccccc3N2S(=O)(=O)c2ccc(-c3cccc(C(F)(F)F)c3)cc2)c1` (stereo not drawn), the melting point was found to be 57 °C.

With `COC(=O)C1=C(C)NC2=C(C(=O)OC2)C1c1cccc2nc(-c3ccccc3)sc12` (stereo not drawn), the melting point amounted to 275 °C.

In the case of `CCCCOc1cc(CCS(N)(=O)=O)n(Cc2ccc(Cl)cc2Cl)n1`, the melting point was in the range of 134 to 136 °C.

Turning to `Nc1ccc([N+](=O)[O-])c(Cl)c1Cl`, the melting point lay in the range of 170 to 174 °C.

On to `COC(=O)C(Cl)C(Cl)c1ccccc1` (stereo not drawn), for which the melting point was in the range of 164 to 165 °C.

On to `CC(C)n1nc(-c2ccc(OCC(N)=O)nc2-c2ccccc2)ccc1=O`, for which the melting point lay within 137 to 138 °C.

`CNc1ccc(C(=O)Nc2ccccc2[N+](=O)[O-])cc1` displayed a melting point of 187 °C.

Take `C#CCN(C)C(=O)N1CC(Oc2cccc(C(F)(F)F)c2)C1`: the melting point lay within 71 to 73 °C.

`C=CCNc1c([N+](=O)[O-])cc(C(=O)OC)c(Nc2ccc(I)cc2F)c1F` displayed a melting point of 153 to 154 °C.

Take `Cc1nnc(-c2ccc3occ(-c4cc(F)ccc4Cl)c3c2)o1`: the melting point lay in the range of 130 to 131 °C.

Turning to `N#Cc1ccc(S(=O)(=O)N2CCN(c3ccncc3)CC2)cc1`, the melting point lay in the range of 212 to 213 °C.

Compound `NC(=O)CC(=O)c1ccc(-c2ccc(Cl)cc2)o1` yielded a melting point of 180 to 181 °C.

`N#C[C@@H]1CCC[C@H]2OC[C@@H](c3ccccc3)N12` registered a melting point of 81 °C.

In turn, `Cc1ccc(S(=O)(=O)N(CC(=O)N(C)C)c2ccc(Cl)cc2C(=O)c2ccccc2Cl)cc1` registered a melting point of 154 to 157 °C.

In turn, `N#Cc1ccc(-c2ccc3cnc(Nc4ccc(N5CCOCC5)cc4)nn23)cn1` returned a melting point of 280 to 283 °C.

For `O=C([C@H]1CC[C@H](Nc2ncc3ncnc(Nc4ccc(F)c(Cl)c4)c3n2)CC1)N1CCCC1`, the melting point is 206 to 209 °C.

In turn, `CC(CC(=O)NCCc1ccc(C(=O)O)cc1)(c1ccccc1)c1ccccc1` gave a melting point of 211 °C.
